This note sets out measurements from patent US8551984B2, “Aminopyrimidines as SYK inhibitors” (Merck Sharp & Dohme Corp., priority 2009, dated 2013).

Where two headings read alike, the source gives them in different places.

Assay [1] has as its target recombinant human SYK (GST-hSYK fusion protein) (Homo sapiens, UniProt P43405).
Text: Homogeneous Time-Resolved Fluorescence (HTRF) Assay for the Recombinant Human SYK Enzyme:
For the next assay, the target named is rhSYK (Homo sapiens, UniProt P43405).
The mark [2] stands for this setting: read-out: rhSYK Activity (IC50), recombinant human GST-SYK 5 pM, ATP 25 μM, biotinylated substrate peptide 250 nM, HTRF, 10-dose titration.
[3] abbreviates: read-out: rhSYK Activity, Table 33-A.
[4] abbreviates: read-out: rhSYK Activity, class symbol, where two forms are listed, one symbol per form.
[5] abbreviates: read-out: rhSYK activity, class symbol given.
[6] abbreviates: read-out: rhSYK Activity, Table 117.
Where [7] appears, read: read-out: rhSYK Activity, Table 119, two symbols in a cell = one per listed form.

For `Cc1cc(Nc2nccc(C(F)(F)F)n2)cc(-c2cnc([C@]3(O)CCC(=O)NC[C@H]3O)s2)c1` (relative stereo) [161(A), [cis]5,6-dihydroxy-5-[5-(3-methyl-5-{[4-(trifluoromethyl)pyrimidin-2-yl]amino}phenyl)-1,3-thiazol-2-yl]azepan-2-one], the IC50 in assay [1] (setting [2]) is < 0.1 µM.
Take `Cc1cc(Nc2nccc(C(F)(F)F)n2)cc(-c2cnc(C3(O)CCCN(C(=O)OC(C)(C)C)CC3)s2)c1` (single isomer, unassigned) [45-2]: the IC50 in assay [1] (read-out: rhSYK Activity, Table 45) fell in the range of 0.1 to 1 µM.
Consider `Cc1cc(Nc2nccc(C(F)(F)F)n2)cc(-c2cnc(C3CCC(C(N)=O)C(C)(C)C3)s2)c1` (single isomer, unassigned) [154(b), 2,2-Dim ethyl-4-[5-(3-methyl-5-{[4-(trifluoromethyl)pyrimidin-2-yl]amino}phenyl)-1,3-thiazol-2-yl]cyclohexanecarboxamide], for which the IC50 in assay [1] (setting [2]) was < 0.1 µM.
For the molecule `Cc1cc(Nc2nccc(C(F)(F)F)n2)cc(-c2cnc(C3CCC(C(N)=O)C(C)(C)C3)s2)c1` (single isomer, unassigned) [154(c), 2,2-Dim ethyl-4-[5-(3-methyl-5-{[4-(trifluoromethyl)pyrimidin-2-yl]amino}phenyl)-1,3-thiazol-2-yl]cyclohexanecarboxamide], in assay [1] (setting [2]), the IC50 is < 0.1 µM.
On to `Cc1cc(Nc2nccc(C(F)(F)F)n2)cc(-c2cnc(C3CCC(C(N)=O)C(C)(C)C3)s2)c1` (single isomer, unassigned) [154(d), 2,2-Dim ethyl-4-[5-(3-methyl-5-{[4-(trifluoromethyl)pyrimidin-2-yl]amino}phenyl)-1,3-thiazol-2-yl]cyclohexanecarboxamide], for which the IC50 in assay [1] (setting [2]) was < 0.1 µM.
The same measure, in the same setting: next, `Cc1cc(Nc2nccc(C(F)(F)F)n2)cc(-c2cnc(C3(O)CCNC(=O)CC3O)s2)c1` (single isomer, unassigned) [161(D), 4,5-dihydroxy-5-[5-(3-methyl-5-{[4-(trifluoromethyl)pyrimidin-2-yl]amino}phenyl)-1,3-thiazol-2-yl]azepan-2-one]: < 0.1 µM.
Regarding `Cc1cc(Nc2nccc(C(C)C)n2)cc(-c2cnc(C3(O)CCNC(=O)CC3)s2)c1` (single isomer, unassigned) [Example 10A-3], in assay [1] (read-out: rhSYK Activity, Table 10, Formula A), the IC50 is < 0.1 µM.
As for `Cc1cc(Nc2ncc(Cl)cn2)cc(-c2cnc(C3(O)CCC(C(=O)O)C(C)(C)C3)s2)c1` (single isomer, unassigned) [Example 33A-44], the IC50 in assay [1] (setting [3]) was < 0.1 µM.
Still for that read-out and setting: next, `COC(=O)C1CCC(O)(c2ncc(-c3cc(CO)cc(Nc4nccc(C(F)(F)F)n4)c3)s2)CC1(C)C` (single isomer, unassigned) [Example 33A-52]: < 0.1 µM.
`CC1(C)CC(O)(c2ncc(-c3cc(Nc4nccc(C(F)(F)F)n4)cc(C(F)F)c3)s2)CCC1C(=O)O` (single isomer, unassigned) [Example 33A-58]: the IC50 in assay [1] (setting [3]) was < 0.1 µM.
Same read-out and setting: the figure for `CC1(C)CC(O)(c2ncc(-c3cc(F)cc(Nc4nccc(C(F)(F)F)n4)c3)s2)CCC1C(=O)O` (single isomer, unassigned) [Example 33A-64] is < 0.1 µM; for `CC1(C)CC(O)(c2ncc(-c3cccc(Nc4nccc(C(F)(F)F)n4)c3)s2)CCC1C(=O)O` (single isomer, unassigned) [Example 33A-67] it is < 0.1 µM; for `COc1ccnc(Nc2cc(C)cc(-c3cnc(C4(O)CCC(C(=O)O)C(C)(C)C4)s3)c2)n1` (single isomer, unassigned) [Example 33A-73] it is < 0.1 µM.
With `Cc1cc(Nc2nccc(C(F)(F)F)n2)cc(-c2cnc(C3(O)CCC(NC(=O)C4CCC(=O)O4)CC3)s2)c1` (centres unmarked) [Example 4C-31], at rhSYK (setting [4]), the IC50 was < 0.1 µM.
`Cc1cc(Nc2nccc(C(F)(F)F)n2)cc(-c2cnc([C@]3(O)CC[C@@H](NC(=O)Cc4ccccn4)CC3)s2)c1` [Example 4C-32]: the IC50 at rhSYK (setting [4]) is < 0.1 µM.
The same measure, in the same setting: the figure for `OC(c1ncc(-c2cccc(Nc3nccc(C(F)(F)F)n3)c2)s1)C(F)(F)F` (centres unmarked) [Example 6-2] is < 0.1 µM; for `CCOC(=O)C(O)(c1ncc(-c2cc(C)cc(Nc3nccc(C(F)(F)F)n3)c2)s1)C(F)(F)F` (centres unmarked) [Example 6-6] it is < 0.1 µM; for `Cc1cc(Nc2nccc(C(F)(F)F)n2)cc(-c2cnc(C(O)(CO)C(F)(F)F)s2)c1` (centres unmarked) [Example 6-7] it is < 0.1 µM.
`Cc1cc(Nc2nccc(C(F)(F)F)n2)cc(-c2cnc([C@]3(O)CC[C@@H](O)CC3)s2)c1` [Example 8(1), cis-1-[5-(3-methyl-5-{[4-(trifluoromethyl)pyrimidin-2-yl]amino}phenyl)-1,3-thiazol-2-yl]-cyclohexane-1,4-diol]: at rhSYK (setting [5]), the IC50 was < 0.1 µM.
`Cc1cc(Nc2nccc(C(F)(F)F)n2)cc(-c2cnc(C(C)(O)c3ccc(C(C)O)cc3)s2)c1` (centres unmarked) [Example 8B-4]: at rhSYK (setting [4]), the IC50 was < 0.1 µM.
Regarding `Cc1cc(Nc2nccc(C(F)(F)F)n2)cc(-c2cnc([C@]3(O)CC[C@](C)(O)CC3)s2)c1` [Example 9(1), trans-1-methyl-4-[5-(3-methyl-5-{[4-(trifluoromethyl)pyrimidin-2-yl]amino}phenyl)-1,3-thiazol-2-yl]cyclohexane-1,4-diol], the IC50 on rhSYK (setting [5]) is < 0.1 µM.
The same measure, in the same setting: next, `Cc1cc(Nc2nccc(C(F)(F)F)n2)cc(-c2cnc(C3(O)CCN(C(=O)OC(C)(C)C)CC3)s2)c1` [Example 45, tert-butyl-4-hydroxy-4-[5-(3-methyl-5-{[4-(trifluoromethyl)pyrimidin-2-yl]amino}phenyl)-1,3-thiazol-2-yl]piperidine-1-carboxylate]: 0.1 to 1 µM.
On to `Cc1cc(Nc2nccc(C(F)(F)F)n2)cc(-c2cnc(C3(NS(=O)(=O)C(C)(C)C)COC3)s2)c1` [Example 61, 2-methyl-N-{3-[5-(3-methyl-5-{[4-(trifluoromethyl)pyrimidin-2-yl]amino}phenyl)-1,3-thiazol-2-yl]oxetan-3-yl}propane-2-sulfonamide], for which the IC50 on rhSYK (setting [5]) is < 0.1 µM.
In the case of `CC(=O)NC1(c2ncc(-c3cc(C)cc(Nc4nccc(C(F)(F)F)n4)c3)s2)CCC1` [Example 66, N-{1-[5-(3-methyl-5-{[4-(trifluoromethyl)pyrimidin-2-yl]amino}phenyl)-1,3-thiazol-2-yl]cyclobutyl}acetamide], the IC50 at rhSYK (setting [5]) was < 0.1 µM.
Take `Cc1cc(Nc2nccc(C(F)(F)F)n2)cc(-c2cnc(C3(O)CCC(CC(N)=O)CC3)s2)c1` (centres unmarked) [Example 117-9]: the IC50 on rhSYK (setting [6]) is < 0.1 µM.
In the case of `Cc1cc(Nc2nccc(C(F)(F)F)n2)cc(-c2cnc(C3(O)CCC(CC(N)=O)CC3)s2)c1` (centres unmarked) [Example 117-10], the IC50 at rhSYK (setting [6]) is < 0.1 µM.
In the case of `Cc1cc(Nc2nccc(C(C)C)n2)cc(-c2cnc(C3(O)CCC(C(N)=O)C(C)C3)s2)c1` (centres unmarked) [Example 119-11], the IC50 at rhSYK (setting [7]) is < 0.1 µM.
Take `COc1ccnc(Nc2cc(C)cc(-c3cnc(C4(O)CCC(C(N)=O)C(C)(C)C4)s3)c2)n1` (centres unmarked) [Example 119-13]: on rhSYK (setting [7]), the IC50 was < 0.1 µM.
Same read-out and setting: the figure for `Cc1cc(Nc2nccc(C(C)O)n2)cc(-c2cnc(C3(O)CCC(C(N)=O)C(C)(C)C3)s2)c1` (centres unmarked) [Example 119-121] is < 0.1 µM; for `Cc1cc(Nc2nccc(C(C)F)n2)cc(-c2cnc(C3(O)CCC(C(N)=O)C(C)(C)C3)s2)c1` (centres unmarked) [Example 119-123] it is < 0.1 µM; for `Cc1cc(Nc2nccc(OC(C)C)n2)cc(-c2cnc(C3(O)CCC(C(N)=O)C(C)(C)C3)s2)c1` (centres unmarked) [Example 119-126] it is < 0.1 µM.
On the same count and under the same terms, next, `Cc1cc(Nc2nccc(C(F)(F)F)n2)cc(-c2cnc(C3(O)CCC(C(N)=O)C(C)(C)C3)s2)c1` (centres unmarked) [Example 119-132]: < 0.1 µM.
